Patent US10294202B2, “Pyrrolidinones as herbicides” (FMC Corporation, priority 2013, dated 2019)

How the values were obtained:
[1] = test system: velvetleaf; experiment: Test A pre-/postemergence herbicide test; format: in vivo, Abutilon theophrasti; details: for Velvetleaf plant response rating: Preemergence, visual rating on 0 to 100 scale (0 no effect, 100 complete control)
How it was run: (§1)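 Both application timings used compounds in a non-phytotoxic solvent plus surfactant. Pre-emergence: soil sprayed directly after seeding into loam/sand. Post-emergence: foliage of 2–10 cm seedlings (1–2 leaves) sprayed. Injury rated ~10 days later, 0–100.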

[2] = test system: ducksalad; experiment: Test B flooded paddy test; format: in vivo, Heteranthera limosa; details: 250 g ai/ha, Flood; scale of 0 to 100 where 0 is no effect and 100 is complete control
Experimental: (§2) Plant species in the flooded paddy test selected from rice (Oryza sativa), sedge, umbrella (small-flower umbrella sedge, Cyperus difformis), ducksalad (Heteranthera limosa), and barnyardgrass (Echinochloa crus-galli) were grown to the 2-leaf stage for testing. At time of treatment, test pots were flooded to 3 cm above the soil surface, treated by application of test compounds directly to the paddy water, and then maintained at that water depth for the duration of the test. Treated plants and controls were maintained in a greenhouse for 13 to 15 days, after which time all species were compared to controls and visually evaluated. Plant response ratings, summarized in Table B, are based on a scale of 0 to 100 where 0 is no effect and 100 is complete control. A dash (-) response means no test result.

[3] = test system: wheat; experiment: Test A pre-/postemergence herbicide test; format: in vivo, Triticum aestivum; details: for Wheat plant response rating: Preemergence, visual rating on 0 to 100 scale (0 no effect, 100 complete control)
How it was run: as §1

[4] = test system: crabgrass, large; experiment: Test A pre-/postemergence herbicide test; format: in vivo, Digitaria sanguinalis; details: for Crabgrass, Large plant response rating: Preemergence, visual rating on 0 to 100 scale (0 no effect, 100 complete control)
How it was run: as §1

[5] = test system: sedge, umbrella; experiment: Test B flooded paddy test; format: in vivo, Cyperus difformis; details: 250 g ai/ha, Flood; scale of 0 to 100 where 0 is no effect and 100 is complete control
How it was run: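 Plants were grown to the 2-leaf stage, then pots were flooded to 3 cm above the soil and compound was applied directly into the paddy water, with that depth held throughout. After 13 to 15 days in a greenhouse, injury was rated visually against untreated controls on a 0 to 100 scale (100 = complete control).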

[6] = test system: pigweed; experiment: Test A pre-/postemergence herbicide test; format: in vivo, Amaranthus retroflexus; details: for Pigweed plant response rating: Preemergence, visual rating on 0 to 100 scale (0 no effect, 100 complete control)
How it was run: as §1

[7] = test system: rice; experiment: Test B flooded paddy test; format: in vivo, Oryza sativa; details: 250 g ai/ha, Flood; scale of 0 to 100 where 0 is no effect and 100 is complete control
Experimental: as §2

[8] = test system: barnyardgrass; experiment: Test A pre-/postemergence herbicide test; format: in vivo, Echinochloa crus-galli; details: for Barnyardgrass plant response rating: Preemergence, visual rating on 0 to 100 scale (0 no effect, 100 complete control)
How it was run: as §1

[9] = test system: morningglory; experiment: Test A pre-/postemergence herbicide test; format: in vivo, Ipomoea spp.
How it was run: as §1

[10] = test system: corn; experiment: Test A pre-/postemergence herbicide test; format: in vivo, Zea mays; details: for Corn plant response rating: Preemergence, visual rating on 0 to 100 scale (0 no effect, 100 complete control)
How it was run: as §1

[11] = test system: giant foxtail; experiment: Test A pre-/postemergence herbicide test; format: in vivo, Setaria faberii; details: for Foxtail, Giant plant response rating: Preemergence, visual rating on 0 to 100 scale (0 no effect, 100 complete control)
How it was run: as §1

[12] = test system: barnyardgrass; experiment: Test B flooded paddy test; format: in vivo, Echinochloa crus-galli; details: 250 g ai/ha, Flood; scale of 0 to 100 where 0 is no effect and 100 is complete control
Experimental: as §2

[13] = Postemergence, 125 g ai/ha, 0 to 100 scale, 0 no effect, 100 complete control
[14] = Postemergence, 500 g ai/ha, 0 to 100 scale (0 no effect, 100 complete control)
[15] = preemergence, 500 g ai/ha, 0 to 100 scale
[16] = preemergence, 500 g ai/ha, 0 to 100 scale (0 no effect, 100 complete control)

Structure (SMILES) | Plant response rating, Velvetleaf [1, 13] | Plant response rating, Velvetleaf [1, 14] | Velvetleaf plant response rating ([1]; 125 g ai/ha) | Plant response rating, Velvetleaf [1, 15] | Plant response rating, Ducksalad [2] | Plant response rating, Wheat [3, 13] | Plant response rating, Wheat [3, 14] | Wheat plant response rating ([3]; 125 g ai/ha) | Plant response rating, Wheat [3, 15] | Plant response rating, Crabgrass, Large [4, 13] | Plant response rating, Crabgrass, Large [4, 14] | Crabgrass, Large plant response rating ([4]; 125 g ai/ha) | Plant response rating, Crabgrass, Large [4, 15] | Plant response rating, Sedge, Umbrella [5] | Plant response rating, Pigweed [6, 13] | Plant response rating, Pigweed [6, 14] | Pigweed plant response rating ([6]; 125 g ai/ha) | Plant response rating, Pigweed [6, 15] | Plant response rating, Rice [7] | Plant response rating, Barnyardgrass [8, 13] | further results
Cc1cccc(NC(=O)C2C(=O)NCC2c2ccc(F)c(F)c2)c1 (stereo not shown) [Compound 56] | 0 | 0 | 0 | 0 | 0 | 0 | 0 | 0 | 0 | 50 | 80 | 60 | 90 | 0 | 0 | 0 | 0 | 0 | 0 | 0 | Plant response rating, Barnyardgrass [8, 14]: 50; Barnyardgrass plant response rating ([8]; 125 g ai/ha): 0; Plant response rating, Barnyardgrass [8, 16]: 40; Plant response rating, Morningglory [9, 13]: 0; Plant response rating, Morningglory [9, 14]: 0; Morningglory plant response rating ([9]; Preemergence, 125 g ai/ha, visual rating on 0 to 100 scale (0 no effect, 100 complete control)): 0; Plant response rating, Morningglory [9, 15]: 0; Plant response rating, Corn [10, 13]: 0; Plant response rating, Corn [10, 14]: 0; Corn plant response rating ([10]; 125 g ai/ha): 0; Plant response rating, Corn [10, 15]: 0; Plant response rating, Foxtail, Giant [11, 13]: 20; Plant response rating, Foxtail, Giant [11, 14]: 60; Foxtail, Giant plant response rating ([11]; 125 g ai/ha): 20; Plant response rating, Foxtail, Giant [11, 15]: 50; Plant response rating, Barnyardgrass [12]: 0
O=C1NCC(c2ccc(Cl)nc2)C1C(=O)Nc1ccccc1F (stereo not shown) [Compound 41] | 0 | 30 | 0 | 0 | 70 | 0 | 0 | 0 | 0 | 30 | 60 | 60 | 90 | 20 | 0 | 30 | 0 | 0 | 0 | 0 | Plant response rating, Barnyardgrass [8, 14]: 50; Barnyardgrass plant response rating ([8]; 125 g ai/ha): 30; Plant response rating, Barnyardgrass [8, 16]: 60; Plant response rating, Morningglory [9, 13]: 0; Plant response rating, Morningglory [9, 14]: 0; Plant response rating, Corn [10, 13]: 0; Plant response rating, Corn [10, 14]: 0; Corn plant response rating ([10]; 125 g ai/ha): 0; Plant response rating, Corn [10, 15]: 0; Plant response rating, Foxtail, Giant [11, 13]: 0; Plant response rating, Foxtail, Giant [11, 14]: 0; Foxtail, Giant plant response rating ([11]; 125 g ai/ha): 10; Plant response rating, Foxtail, Giant [11, 15]: 70; Plant response rating, Barnyardgrass [12]: 0
